# Experimental data published in patent publication US20110280898A1, “INHBB EPITOPE PEPTIDES AND VACCINES CONTAINING THE SAME” (Oncotherapy Science, Inc., priority 2008, published 2011).
# Entries after “also recorded” stand apart in the source; their conditions may differ.
# Tested on: peptide-pulsed T2 cells
# Experiment: IFN-gamma ELISPOT assay on CTLs induced with INHBB-derived peptides
# Format: cell-based, human
# Conditions: target cells pulsed with the peptide vs control not pulsed, after 3rd round of stimulation, day 21
# Excerpt: Monocyte-derived dendritic cells (DCs) were used as antigen-presenting cells (APCs) to induce cytotoxic T lymphocyte (CTL) responses against peptides presented on human leukocyte antigen (HLA). DCs were generated in vitro as described elsewhere (Nakahara S et al., Cancer Res 2003 Jul 15, 63(14): 4112-8). Specifically, peripheral blood mononuclear cells (PBMCs) isolated from a normal volunteer (HLA-A*0201 positive) by Ficoll-Plaque (Pharmacia) solution were separated by adherence to a plastic tissue culture dish (Becton Dickinson) so as to enrich them as the monocyte fraction. The monocyte-enriched population was cultured in the presence of 1000 U/ml of granulocyte-macrophage colony-stimulating factor (GM-CSF) (R&D System) and 1000 U/ml of interleukin (IL)-4 (R&D System) in AIM-V Medium (Invitrogen) containing 2% heat-inactivated autologous serum (AS). After 7 days of culture, the cytokine-induced DCs were pulsed with 20 mcg/ml of each of the synthesized peptides in the presence of 3 mcg/ml of beta2-microglobulin for 3 hr at 37 degrees C. in AIM-V Medium. The generated cells appeared to express DC-associated molecules, such as CD80, CD83, CD86 and HLA class II, on their cell surfaces (data not shown). These peptide-pulsed DCs were then inactivated by Mitomycin C (MMC) (30 mcg/ml for 30 min) and mixed at a 1:20 ratio with autologous CD8+ T cells, obtained by positive selection with CD8 Positive Isolation Kit (Dynal). These cultures were set up in 48-well plates (Corning); each well contained 1.5×10^4 peptide-pulsed DCs, 3×10^5 CD8+ T cells and 10 ng/ml of IL-7 (R&D System) in 0.5 ml of AIM-V/2% AS medium. Three days later, these cultures were supplemented with IL-2 (CHIRON) to a final concentration of 20 IU/ml. On day 7 and 14, the T cells were further stimulated with the autologous peptide-pulsed DCs. The DCs were prepared each time by the same way described above. CTL was tested against peptide-pulsed T2 cells after the 3rd round of peptide stimulation on day 21 (Tanaka H et al., Br J Cancer 2001 Jan. 5, 84(1): 94-9; Umano Y et al., Br J Cancer 2001 Apr. 20, 84(8): 1052-7; Uchida N et al., Clin Cancer Res 2004 Dec. 15, 10(24): 8577-86; Suda T et al., Cancer Sci 2006 May, 97(5): 411-9; Watanabe T et al., Cancer Sci 2005 Aug, 96(8): 498-506).
# Specifically, peptide-pulsed T2 (1×10^4/well) was prepared as stimulator cells. Cultured cells in 48 wells were used as responder cells. IFN-gamma ELISPOT assay and IFN-gamma ELISA assay were performed under manufacture procedure.
row,Substance,IFN-gamma production of peptide-induced CTLs (specific CTL activity)
1,INHBB-A02-10-237: 10-mer HLA-A*0201 binding epitope peptide derived from INHBB (ALFERGERRL),potent IFN-gamma production as compared to the control; also recorded: potent IFN-gamma production as compared with the control
2,INHBB-A02-10-256: 10-mer HLA-A*0201 binding epitope peptide derived from INHBB (QELAVVPVFV),potent IFN-gamma production as compared to the control; also recorded: potent IFN-gamma production as compared with the control
3,INHBB-A02-9-313: 9-mer HLA-A*0201 binding epitope peptide derived from INHBB (RLIGWNDWI),potent IFN-gamma production as compared to the control; also recorded: potent IFN-gamma production as compared with the control
4,INHBB-A02-10-162: 10-mer HLA-A*0201 binding epitope peptide derived from INHBB (FISNEGNQNL),potent IFN-gamma production as compared to the control; also recorded: potent IFN-gamma production as compared with the control
5,INHBB-A02-10-179: 10-mer HLA-A*0201 binding epitope peptide derived from INHBB (WLYLKLLPYV),potent IFN-gamma production as compared to the control; also recorded: potent IFN-gamma production as compared with the control
6,INHBB-A02-9-257: 9-mer HLA-A*0201 binding epitope peptide derived from INHBB (ELAVVPVFV),potent IFN-gamma production as compared to the control; also recorded: potent IFN-gamma production as compared with the control
7,INHBB-A02-9-250: 9-mer HLA-A*0201 binding epitope peptide derived from INHBB (VQCDSCQEL),potent IFN-gamma production as compared to the control; also recorded: potent IFN-gamma production as compared with the control
8,INHBB-A02-10-313: 10-mer HLA-A*0201 binding epitope peptide derived from INHBB (RLIGWNDWII),potent IFN-gamma production as compared to the control; also recorded: potent IFN-gamma production as compared with the control
9,INHBB-A02-10-173: 10-mer HLA-A*0201 binding epitope peptide derived from INHBB (VVQASLWLYL),potent IFN-gamma production as compared to the control; also recorded: potent IFN-gamma production as compared with the control
10,INHBB-A02-9-8: 9-mer HLA-A*0201 binding epitope peptide derived from INHBB (ALGAACLLL),potent IFN-gamma production as compared to the control; also recorded: potent IFN-gamma production as compared with the control
11,INHBB-A02-9-174: 9-mer HLA-A*0201 binding epitope peptide derived from INHBB (VQASLWLYL),potent IFN-gamma production as compared to the control; also recorded: potent IFN-gamma production as compared with the control
12,INHBB-A02-9-139: 9-mer HLA-A*0201 binding epitope peptide derived from INHBB (RVSEIISFA),potent IFN-gamma production as compared to the control; also recorded: potent IFN-gamma production as compared with the control
13,INHBB-A02-10-85: 10-mer HLA-A*0201 binding epitope peptide derived from INHBB (RLQMRGRPNI),potent IFN-gamma production as compared to the control; also recorded: potent IFN-gamma production as compared with the control
14,INHBB-A02-9-213: 9-mer HLA-A*0201 binding epitope peptide derived from INHBB (NMVEKRVDL),potent IFN-gamma production as compared to the control; also recorded: potent IFN-gamma production as compared with the control

# Tested on: peptide-pulsed T2 cells
# Experiment: IFN-gamma ELISA assay on expanded CTL line
# Format: cell-based, human
# Conditions: CTL line expanded from positive well #7, peptide-pulsed target vs target without peptide pulse
# Excerpt: Monocyte-derived dendritic cells (DCs) were used as antigen-presenting cells (APCs) to induce cytotoxic T lymphocyte (CTL) responses against peptides presented on human leukocyte antigen (HLA). DCs were generated in vitro as described elsewhere (Nakahara S et al., Cancer Res 2003 Jul 15, 63(14): 4112-8). Specifically, peripheral blood mononuclear cells (PBMCs) isolated from a normal volunteer (HLA-A*0201 positive) by Ficoll-Plaque (Pharmacia) solution were separated by adherence to a plastic tissue culture dish (Becton Dickinson) so as to enrich them as the monocyte fraction. The monocyte-enriched population was cultured in the presence of 1000 U/ml of granulocyte-macrophage colony-stimulating factor (GM-CSF) (R&D System) and 1000 U/ml of interleukin (IL)-4 (R&D System) in AIM-V Medium (Invitrogen) containing 2% heat-inactivated autologous serum (AS). After 7 days of culture, the cytokine-induced DCs were pulsed with 20 mcg/ml of each of the synthesized peptides in the presence of 3 mcg/ml of beta2-microglobulin for 3 hr at 37 degrees C. in AIM-V Medium. The generated cells appeared to express DC-associated molecules, such as CD80, CD83, CD86 and HLA class II, on their cell surfaces (data not shown). […]
row,Substance,IFN-gamma production / specific CTL activity of established CTL line
1,INHBB-A02-9-174: 9-mer HLA-A*0201 binding epitope peptide derived from INHBB (VQASLWLYL),potent IFN-gamma production as compared with the control

# Same assay, conditions: CTL line expanded from positive well #7, peptide-pulsed target vs target without peptide pulse, listed as SEQ ID NO: 2
row,Substance,IFN-gamma production / specific CTL activity of established CTL line
1,INHBB-A02-9-174: 9-mer HLA-A*0201 binding epitope peptide derived from INHBB (VQASLWLYL),higher specific CTL activity against the peptide-pulsed target as compared to the activity against target without peptide pulse
